# Source: paper PMC8850458, “The AUTOTAC chemical biology platform for targeted protein degradation via the autophagy-lysosome system” (Nature Communications, 2022)
# Several values for one entry are separate records, joined by “and”; a condition that tells them apart may be missing. Identical values can stand only once. Like-named read-outs stand apart in the source and are kept apart here.
# Key:
# tauP301L = tauP301L (Homo sapiens, UniProt P10636, P618L); assay: WB degradation of tauP301L in SH-SY5Y-tauP301L cells; type: cell-based; settings: densitometry, dosage degradation, SH-SY5Y-Tau-TiFC; for Tau normalized to GAPDH and control, AVG %: average of N=3
# Method: Adherent cells were washed with phosphate-buffered saline (PBS) and cell pellets were lysed in SDS-based sample buffer (277.8 mM Tris-HCI, pH 6.8, 4.4% LDS, 44.4% (v/v) glycerol) containing beta-mercaptoethanol. Alternatively, cell pellets or protein supernatants were lysed in 5X Laemmli sample buffer. Whole-cell lysates were separated using SDS-PAGE, and transferred onto polyvinyllidene difluoride membranes at 100 V for 2 h at 4 °C. The membrane was incubated with a blocking solution consisting 4% skim milk in PBS solution for 30 min at room temperature and incubated with primary antibodies overnight, followed by incubation with host-specific HRP-conjugated secondary antibodies (1:10000 dilution). For signal detection, the membrane was developed with a mixture of ECL solution (Thermo Fisher Scientific) using X-ray films. Densitometry of developed bands was measured and analyzed with ImageJ (NIH, Bethesda).
# mutant HttQ103 and LC3 = assay: ICC of HDQ103-GFP and LC3 co-localization in HeLa cells; type: cell-based; settings: Fig. S7k, test substances given +HCQ; for HttQ103-GFP / LC3 colocalization, AVG of cells per 50 cells: control 1; for HttQ103-GFP / LC3 colocalization, percentage AVG: control 2
# Method: Cells were cultured on coverslips coated with poly-L-lysine (Sigma) to observe cellular localization of proteins. Using 4% paraformaldehyde in PBS (pH 7.4), the cells were fixed for 15 min at room temperature and washed three times for 5 min with PBS. After fixing, the cells were permeabilized with 0.5% Triton X-100 in PBS solution for 15 min and washed three times with PBS for 5 min. The cells were blocked containing 2% BSA in PBS solution for 1 h at room temperature. Subsequently, the cells were incubated with primary antibody diluted in 2% BSA/PBS solution overnight at 4 °C, followed by washing the cells three times for 10 min with PBS and incubated with Alexa Fluor-conjugated secondary antibody diluted in 2% BSA/PBS for 30 min at room temperature. Using a DAPI-containing mounting medium (Vector Laboratories), the coverslips were mounted on glass slides. Confocal images were taken by laser scanning confocal microscope 510 Meta (Zeiss) and analyzed by Zeiss LSM Image Browser (ver. 4.2.0.121). […] Quantification results are shown as mean ± S.D. or S.E.M. of three independent experiments […]
# Supplementary Fig. 7. AUTOTACs selectively degrade pathological mutant huntingtin. […]
# (j) ICC of HeLa cells […]
# expressing HDQ103-GFP with the indicated compounds (1 μM, 24 h) treated with HCQ (10 μM, 24 h). Scale bar, 10 μm. (k) Quantification of j (n=3 biologically independent experiments each counting 50 cells). P-values (from a two-sided unpaired t-test): *P < 0.0432. Data are presented as mean values ± SD where relevant. Source data are provided with this paper. […]
# Ub^+ and p62^+ puncta = assay: ICC of Ub (FK2) and p62 puncta in HeLa cells; type: cell-based; settings: Fig. 4i
# Method: Fig. 4 Targeted autophagic delivery and degradation of misfolded protein cargoes using AUTOTACs with aggregate-binding warhead. a A model illustrating the mode of action of aggregate-targeting AUTOTAC. b Chemical structures of PBA-1105, PBA-1106, Anle138b-F105 and PBA-1105b. c In vitro p62 oligomerization assay in HEK293T cells incubated with the indicated compounds in (b). d WB in HEK293T cells treated with MG132 (1 μM, 24 h), HCQ (10 μM, 24 h), PBA-1105, YTK-1105, and PBA (1 μM, 24 h). e Identical to (d), but with Anle-F105. f ICC of HeLa cells treated with HCQ (10 μM, 24 h), MG132 (2 μM, 18 h) or both in the presence of PBA-1106, YOK-1106 or PBA (1 μM, 24 h). Scale bar, 10 μm. g Quantification of (f) (n = 3, 50 cells). h ICC of HeLa cells treated with Anle138b-F105 (1 μM, 24 h). Scale bar, 10 μm. i Quantification of (h) (n = 3, 50 cells). When indicated, n = 3 biologically independent experiments each counting 50 cells. Data are presented as mean values ± SD where relevant. P-values (from a two-sided unpaired t test): ***P < 7.66E−05. Source data are provided with this paper.
# (§1) Cells were cultured on coverslips coated with poly-L-lysine (Sigma) to observe cellular localization of proteins. Using 4% paraformaldehyde in PBS (pH 7.4), the cells were fixed for 15 min at room temperature and washed three times for 5 min with PBS. After fixing, the cells were permeabilized with 0.5% Triton X-100 in PBS solution for 15 min and washed three times with PBS for 5 min. The cells were blocked containing 2% BSA in PBS solution for 1 h at room temperature. Subsequently, the cells were incubated with primary antibody diluted in 2% BSA/PBS solution overnight at 4 °C, followed by washing the cells three times for 10 min with PBS and incubated with Alexa Fluor-conjugated secondary antibody diluted in 2% BSA/PBS for 30 min at room temperature. Using a DAPI-containing mounting medium (Vector Laboratories), the coverslips were mounted on glass slides. Confocal images were taken by laser scanning confocal microscope 510 Meta (Zeiss) and analyzed by Zeiss LSM Image Browser (ver. 4.2.0.121). […] Quantification results are shown as mean ± S.D. or S.E.M. of three independent experiments
# [1] = tested on: tauP301L inclusion bodies; assay: ICC of TauP301L-GFP autophagic targeting in HeLa cells; type: cell-based; settings: Fig. 5k, HCQ alone
# Method: Fig. 5 Selective degradation of pathological aggregation-prone tau species by aggregate-binding AUTOTAC. a–c WB in SH-SY5Y-tauP301L cells treated with PBA-1105, PBA, or YTK-1105 at the indicated concentrations. d Densitometry of (a, b, and c) (n = 3 biologically independent experiments). e–g Same as (a–c) but with Anle138b-F105, Anle138b, or YTK-105. (h) Densitometry of (e, f, and g) (n = 3 biologically independent experiments). i WB in SH-SY5Y-tauP301L cells treated with PBA-1105 (0.1 μM) at the indicated time points. j ICC of HeLa cells expressing recombinant TauP301L-GFP and treated with the indicated compounds (1 μM, 24 h) and HCQ (10 μM, 24 h). Scale bar, 10 μm. k Quantification of (j) (n = 3 biologically independent experiments each counting 50 cells). l In vivo oligomerization assay in SH-SY5Y-tauP301L cells treated with okadaic acid (15 nM, 24 h) and the indicated compounds (0.1 μM, 24 h). m Triton X-100-fractionation assay in SH-SY5Y-tauP301L cells treated with a combination of HCQ (10 μM, 24 h), okadaic acid (15 nM, 24 h) or PBA-1105 (0.1 μM, 24 h). Data are presented as mean values ± SD where relevant. P-values (from a two-sided unpaired t test): **P < 0.00821. Source data are provided with this paper.
# as §1
# LNCaP cells [2] = settings: human
# in vitro = settings: human
# LNCaP cells [3] = assay: WST-based cell viability assay in LNCaP cells; settings: LNcaP, duplicates
# [4] = WST assay viability relative to con = 100
# Sequence of tauP301L (P10636 1-441 isoform P10636-8 P301L): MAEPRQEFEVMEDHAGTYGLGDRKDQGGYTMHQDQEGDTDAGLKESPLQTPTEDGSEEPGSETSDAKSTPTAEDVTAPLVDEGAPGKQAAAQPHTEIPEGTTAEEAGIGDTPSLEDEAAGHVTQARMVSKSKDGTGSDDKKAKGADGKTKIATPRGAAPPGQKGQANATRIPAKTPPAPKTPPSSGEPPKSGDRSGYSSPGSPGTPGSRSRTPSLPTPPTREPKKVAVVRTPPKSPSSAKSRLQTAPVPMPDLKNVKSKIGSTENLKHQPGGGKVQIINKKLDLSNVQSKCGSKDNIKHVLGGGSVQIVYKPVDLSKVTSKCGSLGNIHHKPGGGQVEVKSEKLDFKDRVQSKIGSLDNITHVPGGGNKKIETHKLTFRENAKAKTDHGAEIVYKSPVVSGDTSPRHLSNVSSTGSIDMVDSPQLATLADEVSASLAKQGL
smiles,measurement,setting,value
"Brc1cccc(-c2cc(-c3ccc4c(c3)OCO4)[nH]n2)c1 [Anle138b, reference compound]","Tau normalized to GAPDH and control, AVG %",tauP301L; 1 nM,90.8031%
same,remaining activity at 0.001 µM,"tauP301L; 1 nM, read-out: (Tau normalized to GAPDH) normalized to control, percentage (individual replicates N=1, N=2, N=3)",89.3%
same,"Tau normalized to GAPDH and control, AVG %",tauP301L; 10 nM,101.352%
same,"Tau normalized to GAPDH and control, AVG %",tauP301L; 100 nM,84.5794%
same,"Tau normalized to GAPDH and control, AVG %",tauP301L; 1 uM,69.922%
same,"Tau normalized to GAPDH and control, AVG %",tauP301L; 10uM,83.6402%
same,"HttQ103-GFP / LC3 colocalization, AVG of cells per 50 cells",mutant HttQ103 and LC3,21
same,"HttQ103-GFP / LC3 colocalization, percentage AVG",mutant HttQ103 and LC3,42
Fc1ccc(COc2cccc(CNCCOCCOCCNc3cccc(-c4cc(-c5ccc6c(c5)OCO6)n[nH]4)c3)c2)cc1 [Anle.-F105],"FK2 (Ub) / p62 colocalization, AVG of cells per 50 cells",Ub^+ and p62^+ puncta; con vs Anle.-F105,44.6667
same,"FK2 (Ub) / p62 colocalization, percentage AVG",Ub^+ and p62^+ puncta; con vs Anle.-F105,89.3333 percentage
same,"FK2 (Ub) / p62 colocalization, cells counted per 50 cells (individual replicates)","Ub^+ and p62^+ puncta; con vs Anle.-F105, count out of 50 cells",44 and 42 and 48
same,"Tau normalized to GAPDH and control, AVG %",tauP301L; 1 nM,89.5946%
same,"Tau normalized to GAPDH and control, AVG %",tauP301L; 10 nM,39.4372%
same,"Tau normalized to GAPDH and control, AVG %",tauP301L; 100 nM,27.9865%
same,"Tau normalized to GAPDH and control, AVG %",tauP301L; 1 uM,22.4452%
same,"Tau normalized to GAPDH and control, AVG %",tauP301L; 2.5uM,20.2653%
same,remaining activity at 2.5 µM,"tauP301L; 2.5uM, read-out: (Tau normalized to GAPDH) normalized to control, percentage (individual replicates N=1, N=2, N=3)",14.5%
same,"Tau normalized to GAPDH and control, AVG %",tauP301L; 5uM,9.605%
same,remaining activity at 5 µM,"tauP301L; 5uM, read-out: (Tau normalized to GAPDH) normalized to control, percentage (individual replicates N=1, N=2, N=3)",9.88%
same,"Tau normalized to GAPDH and control, AVG %",tauP301L; 10uM,11.8682%
same,remaining activity at 10 µM,"tauP301L; 10uM, read-out: (Tau normalized to GAPDH) normalized to control, percentage (individual replicates N=1, N=2, N=3)",10.3%
CCN(CCO)CCCC(C)Nc1ccnc2cc(Cl)ccc12 (stereo not drawn) [HCQ],"HttQ103-GFP / LC3 colocalization, AVG of cells per 50 cells",mutant HttQ103 and LC3,14.6667
same,"HttQ103-GFP / LC3 colocalization, percentage AVG",mutant HttQ103 and LC3,29.3333
same,"HttQ103-GFP / LC3 colocalization, cells counted per 50 cells",mutant HttQ103 and LC3; single experiments,13 and 17 and 14
same,"TauP301L-GFP / LC3 colocalization, AVG of cells per 50 cells",[1],11.3333
same,"TauP301L-GFP / LC3 colocalization, percentage AVG",[1],22.6667 percentage
same,"TauP301L-GFP / LC3 colocalization, cells counted per 50 cells (individual replicates)",[1]; count out of 50 cells,15 and 7 and 12
C=CC1(C)OC(=O)N(c2cc(Cl)cc(Cl)c2)C1=O (stereo not drawn) [Vinclozolin],WST assay viability relative to con = 100,LNCaP cells [2]; 0.01 µM,103.812
same,WST assay viability relative to con = 100,LNCaP cells [2]; 0.1 µM,103.962
same,WST assay viability relative to con = 100,LNCaP cells [2]; 1 µM,97.4197
same,WST assay viability relative to con = 100,LNCaP cells [2]; 10 µM,103.712
same,WST assay viability relative to con = 100,LNCaP cells [2]; 50 µM,108.507
same,WST assay viability relative to con = 100,LNCaP cells [2]; 100 µM,100.466
same,viability at 0.01 µM,in vitro; [4],96.4%
same,viability at 0.1 µM,in vitro; [4],91.3%
same,viability at 1 µM,in vitro; [4],89.8%
same,viability at 10 µM,in vitro; [4],92.8%
same,viability at 50 µM,in vitro; [4],94.7%
same,viability at 100 µM,in vitro; [4],111%
same,viability at 0.01 µM,"in vitro; WST assay viability, AVG %",100%
same,viability at 0.1 µM,"in vitro; WST assay viability, AVG %",97.6%
same,viability at 1 µM,"in vitro; WST assay viability, AVG %",93.6%
same,viability at 10 µM,"in vitro; WST assay viability, AVG %",98.3%
same,viability at 50 µM,"in vitro; WST assay viability, AVG %",102%
same,viability at 100 µM,"in vitro; WST assay viability, AVG %",106%
same,WST assay raw reading,LNCaP cells [3]; 0.01uM,2.034 and 2.182
same,WST assay raw reading,LNCaP cells [3]; 0.1uM,1.931 and 2.185
same,WST assay raw reading,LNCaP cells [3]; 1uM,1.901 and 2.054
same,WST assay raw reading,LNCaP cells [3]; 10uM,1.962 and 2.18
same,WST assay raw reading,LNCaP cells [3]; 50uM,1.999 and 2.276
same,WST assay raw reading,LNCaP cells [3]; 100uM,2.333 and 2.115
